Assay: Polymorph study by X-Ray Powder Diffraction (XRPD)
Assay type: physicochemical
Conditions: XRPD of powder from spheroids of example 7a versus dihydrate and trihydrate patterns
Procedure: All the formulations described in examples 7a-7h released the API quantitatively in 15 minutes. In addition, a polymorph study was performed and the crystal phase of Esomeprazole Mg powder deriving from the spheroids of example 7a was established through the application of the X-Ray Powder Diffraction (XRPD) technique. The recorded XRD patterns shown in FIG. 2 were compared against the respective patterns of the dihydrate and trihydrate forms provided by the manufacturer. […] None of the characteristic trihydrate reflections, marked with arrows in FIG. 2, could be observed.

| crystal habit after the aqueous pelletization process | Structure (SMILES) |
| --- | --- |
| without deteriorating the crystal habit | COc1ccc2[n-]c([S@@+]([O-])Cc3ncc(C)c(OC)c3C)nc2c1.COc1ccc2[n-]c([S@@+]([O-])Cc3ncc(C)c(OC)c3C)nc2c1.O.O.[Mg+2] [Esomeprazole Magnesium Dihydrate] |

Assay: not given
Conditions: water; cited from earlier work

| Structure (SMILES) | aqueous solubility class (US Pharmacopoeia terms) |
| --- | --- |
| COc1ccc2nc([S@@+]([O-])Cc3ncc(C)c(OC)c3C)[nH]c2c1 [Esomeprazole] | slightly soluble or insoluble |
| CCC1=C(C)CN(C(=O)NCCc2ccc(S(=O)(=O)NC(=O)N[C@H]3CC[C@H](C)CC3)cc2)C1=O [Glimepiride] | practically insoluble |
| Cc1c(OCC(F)(F)F)ccnc1C[S+]([O-])c1nc2ccccc2[nH]1 (stereo not shown) [Lansoprazole] | practically insoluble |
| COc1ccc2[nH]c([S+]([O-])Cc3ncc(C)c(OC)c3C)nc2c1 (stereo not shown) [Omeprazole] | very slightly soluble |
| COc1ccnc(C[S+]([O-])c2nc3ccc(OC(F)F)cc3[nH]2)c1OC (stereo not shown) [Pantoprazole] | freely soluble |
| COCCCOc1ccnc(C[S+]([O-])c2nc3ccccc3[nH]2)c1C (stereo not shown) [Rabeprazole] | very soluble |

From patent US20120027822A1, “Process for Producing Rapidly Disintegrating Spheroids (Pellets), Granules and/or Mixtures Thereof” (SPECIFAR S.A., priority 2009, published 2012)
